Patent US10653679B2, “Compositions and methods for inhibiting bacterial growth” (priority 2015, dated 2020)
Entries after “also recorded” stand apart in the source; their conditions may differ. Like-named read-outs stand apart in the source and are kept apart here.

Experiments:
[1] = system: PhoPR regulon; assay: Semi-quantitative real-time PCR of phoP, aprA and pks2; assay type: cell-based, Mycobacterium tuberculosis
[2] = in animals, previously reported, cited from earlier work
[3] = system: BMDMs; assay: Phagosome acidification (pHrodo labeled beads in BMDMs); conditions: ETZ up to 100 μM, 4 h pre-treatment, 100 minutes
[4] = system: Mtb-associated granulomatous pneumonia; assay: Lung histopathology of infected mice; conditions: ETZ 100 mg/kg vs CMC treated animals
Source text: (§1) C57BL/6 mice were infected via the intranasal route with 1000 CFU of the Erdman (aprA′::GFP smyc′::mCherry) dual fluorescent reporter. […] After 4 weeks, the right lung was homogenized and plated for enumeration of the bacterial load and the left lung was fixed in 4% paraformaldehyde before being transferred to 30% sucrose for confocal microscopy and pathology evaluation (FIG. 8). This experiment was repeated and the data from the two independent biological replicates were similar and therefore combined. […] Mice were euthanized by carbon dioxide asphyxiation followed by cervical dislocation.
For histopathology, transverse sections of each lung specimen was fixed in 4% paraformaldehyde for 48 hours, transferred to 50% ethanol for 4 hours, processed routinely, embedded in paraffin, and sectioned at 4 μm, followed by routine hematoxylin and eosin staining.

[5] = system: WT Mtb CDC1551; assay: Cytoplasmic pH measurement
[6] = system: PhoPR regulon; assay: Quantitative single-cell imaging of reporter fluorescence in infected mouse lungs; conditions: ETZ treated lungs, 100 mg/kg oral, 4 weeks
Source text: as §1
PFA fixed mouse lungs were frozen in a 30% sucrose PBS pH 7.4 solution, frozen in a dry ice, ethanol bath, and stored at −80° C. until imaging. At the time of imaging, lungs were thawed and hand-sectioned using a sterile scalpel. Sections were transferred to a microscope slide and 10 μL of ProLong® Gold antifade reagent (Invitrogen) was added. […] Settings for GFP and mCherry fluorescence were held constant through the image acquisition to allow for comparison between samples. For quantification of Mtb reporter fluorescence, bacilli were identified in the mCherry channel and the corresponding sum of GFP fluorescence was measured using the Volocity software package (Perkin Elmer). At least 1500 bacilli were counted across multiple fields of view and lungs.

[7] = system: Esx-1 protein export; assay: Analysis of Esx-1 protein export (Western blot); assay type: cell-based, Mycobacterium tuberculosis; conditions: Mtb Erdman, Sauton's medium, ETZ 80 μM
[8] = system: PhoPR regulon; assay: microbe, parasite or virus in culture; assay type: cell-based; conditions: Mycobacterium tuberculosis
[9] = system: PhoPR regulon; assay: cells; assay type: cell-based, Mycobacterium tuberculosis
[10] = system: Mtb lipid synthesis; assay: Analysis of mycobacterial lipids (14C radio-TLC); conditions: 80 μM ETZ
[11] = system: Mtb CDC1551(aprA′::GFP); assay type: cell-based, Mycobacterium tuberculosis
[12] = system: PhoPR regulon; assay: RNA-seq transcriptional profiling; assay type: cell-based, Mycobacterium tuberculosis

With `CCOc1ccc2nc(S(N)(=O)=O)sc2c1` [ETZ, 6-ethoxy-1,3-benzothiazole-2-sulfonamide] as the compound, how does the “regulation of phoP gene expression” value [1] read?
Its value is “did not exhibit substantial differential regulation”.

And the “down-regulation of aprA” value ([1]; both pH 7.0 and 5.7)?
The value was > 5 fold.

And the “down-regulation of pks2” value ([1]; both pH 7.0 and 5.7)?
Its value is > 5 fold.

And the drug-related organ lesions ([2]; 100 mg/kg)?
Its drug-related organ lesions is “no observable drug-related organ lesions”.

And the LD50 [2]?
The LD50 was ~1000 mg/kg.

And the half-life [2]?
The half-life was 2.5 to 5.5 h.

And the phagosome acidification [3]?
The phagosome acidification was “did not alter phagosome acidification”.

And the “percent lung area affected (Mtb-associated granulomatous pneumonia)” value [4]?
The value was “did not have a significant reduction; also recorded: no significant difference”.

And the acidification of cytoplasm ([5]; ETZ 80 μM, 6 days, medium pH 5.7)?
Its acidification of cytoplasm is < 0.1 pH units.

And the “change of cytoplasmic pH” value ([5]; ETZ 80 μM, 6 days, medium pH 7.0)?
Its value is “no change”.

And the “acidification of cytoplasmic pH” value ([5]; ETZ treated Mtb)?
Its value is “slight acidification”.

And the “Mtb cells in the bottom decile of GFP fluorescence” value [6]?
The value was 49%.

What about the “ESAT-6 and CFP-10 expression” value [7] of the same compound?
The value was “did not affect”.

And the “secretion of ESAT-6 and CFP-10” value [7]?
The value was “strongly and selectively reduced; also recorded: inhibits the secretion”.

And the “secretion of Sec-secreted protein Mpt-32” value [7]?
The value was “did not alter”.

And the EC50 ([8]; 144 h, pH 5.7, read-out: EC50 of inhibition of CDC1551(aprA′::GFP) reporter fluorescence)?
The EC50 was 5.6 µM.

What about the EC50 ([8]; pH 7, read-out: EC50 of inhibition of aprA′::GFP reporter fluorescence) of the same compound?
The EC50 was 4.7 µM.

And the “inhibition of reporter GFP fluorescence in infected macrophages” value [9]?
The value was “significantly down-regulates”.

And the inhibition at 100 µM ([9]; Mycobacterium tuberculosis, BMDM, read-out: inhibition of reporter GFP fluorescence in infected macrophages)?
Its inhibition at 100 µM is > 90%.

What about the “accumulation of sulfolipid (SL)” value [10] of the same compound?
The value was “not detected; also recorded: lack of accumulation”.

And the effect on growth ([11]; pH 5.7, across the range of ETZ concentrations tested)?
Its effect on growth is “mostly unaffected; also recorded: little effect on growth”.

What about the effect on growth ([11]; pH 7.0) of the same compound?
Its effect on growth is “little effect on growth”.

What about the “down-regulation of espR and the espACD operon” value [12] of the same compound?
The value was > 1.5 fold.

What about the “down-regulation of mmpL8-pks2 operon (Rv3823c-Rv3825c)” value ([12]; ETZ at acidic pH) of the same compound?
The value was ~5 fold.
